Source: the supplement of paper PMC4862054

Assays:
Conditions in all cases: incubation time: 72 h
[1] = tested on: BT-474; assay: normalised viability (% of control), CellTiter-Blue; higher = more viable cells (about 100 = DMSO control)
Summary of the method: (§1)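 Normalised viability is given for a single listed concentration of the series. In 384-well plates, breast cancer cell lines were incubated 72 h with compound, then read with CellTiter-Blue (2 h, 37 °C) at 560/590 nm. Per-plate scaling set vehicle to 100 and a positive kill control to 0, with Z'-factor quality control.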

[2] = tested on: CAL-120; assay: as above
Summary of the method: as §1

[3] = tested on: CAL-148; assay: as above
Summary of the method: as §1

[4] = tested on: CAL-51; assay: as above
Summary of the method: as §1

[5] = tested on: CAL-85-1; assay: as above
Summary of the method: as §1

[6] = tested on: HCC1143; assay: as above
Summary of the method: as §1

[7] = tested on: HCC1599; assay: as above
Summary of the method: as §1

[8] = tested on: HCC1937; assay: as above
Summary of the method: as §1

[9] = tested on: HDQ-P1; assay: as above
Summary of the method: as §1

[10] = tested on: Hs578T; assay: as above
Summary of the method: as §1

[11] = tested on: MDA-MB-231; assay: as above
Summary of the method: as §1

[12] = tested on: MDA-MB-468; assay: as above
Summary of the method: as §1

[13] = tested on: MFM-223; assay: as above
Summary of the method: as §1

[14] = tested on: SK-BR-3; assay: as above
Summary of the method: as §1

[15] = tested on: BT-474; assay: drug sensitivity score (DSS), CellTiter-Glo (DSS (AUC-based score)); higher = stronger drug effect (viability inhibition or cytotoxicity); extreme values may be limits of the assay
Summary of the method: (§2)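 The drug sensitivity score reflects the area under a fitted dose-response curve. To obtain it, breast cancer cells in 20 µl suspension were seeded into 384-well plates containing compound at 5 concentrations, 10-fold apart over a compound-specific 10,000-fold range, and incubated 72 h. CellTox Green fluorescence (485/520 nm) was read first and CellTiter-Glo luminescence second, after 10 min at room temperature. Each plate was normalised to 0.1 % DMSO and a positive kill control.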

[16] = tested on: CAL-120; assay: as above
Summary of the method: as §2

[17] = tested on: CAL-51; assay: as above
Summary of the method: as §2

[18] = tested on: CAL-85-1; assay: as above
Summary of the method: as §2

[19] = tested on: DU-4475; assay: as above
Summary of the method: as §2

[20] = tested on: HCC1599; assay: as above
Summary of the method: as §2

[21] = tested on: HDQ-P1; assay: as above
Summary of the method: as §2

[22] = tested on: Hs578T; assay: as above
Summary of the method: as §2

[23] = tested on: MDA-MB-231; assay: as above
Summary of the method: as §2

[24] = tested on: SK-BR-3; assay: as above
Summary of the method: as §2

CCC1=C[C@@H]2CN(C1)Cc1c([nH]c3ccccc13)[C@@](C(=O)OC)(c1cc3c(cc1OC)N(C)[C@H]1[C@@](O)(C(=O)OC)[C@H](OC(C)=O)[C@]4(CC)C=CCN5CC[C@]31[C@@H]54)C2 [Vinorelbine]
normalised viability [%]
Conditions	3 nM	10 nM	30 nM	100 nM	1000 nM	10000 nM
[1]	–	108	–	–	44.4	58.1
[2]	–	84.1	–	–	24.3	25.4
[3]	106	–	91.4	18.7	–	–
[4]	110	–	91.7	58.1	–	–
[5]	94.2	–	60.3	34.5	–	–
[6]	–	93.9	–	–	45.8	38.7
[7]	–	84.2	–	–	44.4	53.5
[8]	–	83.2	–	–	14.7	19.5
[9]	95.3	–	81.2	65	–	–
[10]	–	93.7	–	–	16.1	15.9
[11]	–	109	–	–	16.7	12.7
[12]	–	104	–	–	53.6	33.8
[13]	–	95.5	–	–	44	29.1
[14]	–	99.4	–	–	17.7	18.3

Conditions	drug sensitivity score
[15]	12.3
[16]	13.2
[17]	17.1
[18]	19.8
[19]	6.47
[20]	18.8
[21]	7.16
[22]	19.8
[23]	13.7
[24]	37.5

O=C1CCC(N2C(=O)c3ccccc3C2=O)C(=O)N1 (stereo not drawn) [Thalidomide]
normalised viability [%]
Conditions	3 nM	10 nM	30 nM	100 nM	1000 nM	10000 nM
[1]	–	110	–	–	110	108
[2]	–	111	–	–	106	96.8
[3]	115	–	116	116	–	–
[4]	90.8	–	90.7	91.3	–	–
[5]	102	–	98.8	101	–	–
[6]	–	109	–	–	102	107
[7]	–	101	–	–	86	102
[8]	–	85.8	–	–	73.4	77.9
[9]	107	–	101	103	–	–
[10]	–	97.8	–	–	108	106
[11]	–	97.2	–	–	109	124
[12]	–	97.9	–	–	101	105
[13]	–	103	–	–	96.6	91.4
[14]	–	97.9	–	–	112	109

Conditions	drug sensitivity score
[15]	0
[16]	0
[17]	0
[18]	0
[19]	0
[20]	0
[21]	0
[22]	0
[23]	0
[24]	0

CCC1(c2ccc(N)cc2)CCC(=O)NC1=O (stereo not drawn) [Aminoglutethimide]
normalised viability [%]
Conditions	3 nM	10 nM	30 nM	100 nM	1000 nM	10000 nM
[1]	–	107	–	–	104	105
[2]	–	111	–	–	116	108
[3]	108	–	105	106	–	–
[4]	87.2	–	92.6	92.8	–	–
[5]	104	–	89.6	103	–	–
[6]	–	124	–	–	115	122
[7]	–	90.8	–	–	92.7	95.3
[8]	–	93.3	–	–	92.9	83.4
[9]	84.8	–	99.2	103	–	–
[10]	–	95.8	–	–	113	89.8
[11]	–	86.9	–	–	90.2	106
[12]	–	97.3	–	–	103	110
[13]	–	97	–	–	102	97.5
[14]	–	99.1	–	–	100	109

Conditions	drug sensitivity score
[15]	0
[16]	0
[17]	0
[18]	0
[19]	0
[20]	0
[21]	0
[22]	0
[23]	0
[24]	0

CN(C)/N=N/c1[nH]cnc1C(N)=O [Dacarbazine]
normalised viability [%]
Conditions	3 nM	10 nM	30 nM	100 nM	1000 nM	10000 nM
[1]	–	126	–	–	122	119
[2]	–	88.2	–	–	83.8	79.5
[3]	84.4	–	96	99.2	–	–
[4]	92.7	–	88.9	88.9	–	–
[5]	95.8	–	84.6	90.5	–	–
[6]	–	76.3	–	–	106	84.2
[7]	–	93.8	–	–	97.1	86.7
[8]	–	98	–	–	87.3	98.5
[9]	107	–	100	110	–	–
[10]	–	119	–	–	113	94.8
[11]	–	101	–	–	89.3	99
[12]	–	104	–	–	104	88.8
[13]	–	90.4	–	–	89.3	104
[14]	–	104	–	–	95.3	100

Conditions	drug sensitivity score
[15]	0
[16]	0.483
[17]	0
[18]	0
[19]	0
[20]	0
[21]	0
[22]	0
[23]	0
[24]	0
